# Reference: publication PMC7558026, “Exploring and applying the substrate promiscuity of a C-glycosyltransferase in the chemo-enzymatic synthesis of bioactive C-glycosides” (Nature Communications, 2020)
# “And” between values parts separate entries of the source, which are not always exact repeats. Equal values may be shown once. “Also recorded” adds a separate entry of the source.
# How the values were obtained:
# [1] = target: T1, SGLT2 (Homo sapiens, UniProt P31639); test: 1-NBDG uptake in HEK293 cells stably expressing SGLT2; type: cell-based
# T1 construct: Human full-length SGLT2 cDNA (NM_003041.3) was synthesized; expressed in transfected cells; host or cells: HEK293, retroviral transduction with pMSCVpuro-SGLT2, puromycin selected
# T1 sequence (P31639 1-672): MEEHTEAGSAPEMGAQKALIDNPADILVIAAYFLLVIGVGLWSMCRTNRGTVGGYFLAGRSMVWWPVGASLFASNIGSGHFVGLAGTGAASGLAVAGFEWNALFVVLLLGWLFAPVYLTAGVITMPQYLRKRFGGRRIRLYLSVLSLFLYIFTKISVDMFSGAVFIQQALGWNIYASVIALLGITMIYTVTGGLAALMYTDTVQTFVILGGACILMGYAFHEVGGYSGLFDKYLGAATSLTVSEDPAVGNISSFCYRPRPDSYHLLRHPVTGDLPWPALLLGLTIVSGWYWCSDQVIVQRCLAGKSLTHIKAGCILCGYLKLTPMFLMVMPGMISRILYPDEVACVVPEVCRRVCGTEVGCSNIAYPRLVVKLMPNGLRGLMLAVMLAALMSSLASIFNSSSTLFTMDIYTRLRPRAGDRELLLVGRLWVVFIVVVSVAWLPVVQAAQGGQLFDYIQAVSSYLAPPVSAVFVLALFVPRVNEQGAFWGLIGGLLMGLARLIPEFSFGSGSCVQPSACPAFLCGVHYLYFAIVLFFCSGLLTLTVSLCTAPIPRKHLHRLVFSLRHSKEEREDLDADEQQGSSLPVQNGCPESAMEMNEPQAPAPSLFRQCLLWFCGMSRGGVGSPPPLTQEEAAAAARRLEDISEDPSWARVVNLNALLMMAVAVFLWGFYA
# [2] = target: T2, SGLT1 (Homo sapiens, UniProt P13866); test: 1-NBDG uptake in HEK293 cells stably expressing SGLT1; type: cell-based; conditions: HEK293, compound at 10 μM; triplicate; read-out: SGLT1 inhibitory rates
# T2 construct: The full-length SGLT1 cDNA was obtained by PCR with forward primer; expressed in transfected cells
# T2 sequence (P13866 1-664): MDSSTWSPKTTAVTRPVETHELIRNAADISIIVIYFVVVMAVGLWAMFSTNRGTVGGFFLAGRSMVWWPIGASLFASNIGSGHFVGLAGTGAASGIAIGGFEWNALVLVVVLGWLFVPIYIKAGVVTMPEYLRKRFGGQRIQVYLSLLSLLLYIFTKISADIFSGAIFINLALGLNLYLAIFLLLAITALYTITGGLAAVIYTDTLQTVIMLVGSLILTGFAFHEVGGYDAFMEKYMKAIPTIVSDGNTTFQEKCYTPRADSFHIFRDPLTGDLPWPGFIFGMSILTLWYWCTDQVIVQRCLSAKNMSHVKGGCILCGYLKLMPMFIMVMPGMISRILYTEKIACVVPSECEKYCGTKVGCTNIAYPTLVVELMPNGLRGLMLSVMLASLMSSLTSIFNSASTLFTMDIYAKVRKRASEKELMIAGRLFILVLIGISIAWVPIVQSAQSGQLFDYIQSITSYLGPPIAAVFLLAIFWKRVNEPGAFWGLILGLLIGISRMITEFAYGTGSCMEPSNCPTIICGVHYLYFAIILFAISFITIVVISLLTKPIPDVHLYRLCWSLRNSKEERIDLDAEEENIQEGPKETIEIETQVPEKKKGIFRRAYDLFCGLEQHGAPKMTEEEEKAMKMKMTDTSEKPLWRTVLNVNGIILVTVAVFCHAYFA
# [3] = tested on: ICR mice; test: Oral glucose-tolerance test (OGTT) in normal ICR mice; type: in vivo; conditions: for OD505nm (blood glucose, GOD assay) in OGTT: individual mice
# Experimental: The hypoglycemic effect of 46a was firstly evaluated by oral glucose-tolerance test (OGTT) in mice with normal blood glucose levels. Male Institute of Cancer Research (ICR) mice weighing 24–26 g were obtained from Beijing Vital River Laboratory Animal Technology Co., Ltd (Beijing, China) and divided into three groups (n = 7–8). […] After 2 h of fasting, blood samples were collected from the tails for determination of baseline values of blood glucose (0 min). The mice were then orally administered glucose (2 g kg^‒1 BW), and blood samples were collected at 15, 30, 60, and 120 min. A glucose oxidase (GOD) assay was used for blood glucose-level measurement. The values of area under the glucose-time curve (AUC) were calculated.
# [4] = tested on: alloxan-induced DM mice; test: Hypoglycemic effect in alloxan-induced diabetic mellitus (DM) mice; type: in vivo; conditions: for OD505nm (nonfasting blood glucose): individual mice
# Experimental: Type 1 diabetes mellitus (T1DM) mice were established by intravenous injection of alloxan tetrahydrate (68 mg kg^‒1 BW). […] Nonfasting blood glucose was kinetically monitored at 1, 2, 4, 6, 8, 24, and 48 h after treatment with 46a.
# [5] = tested on: KKAy mice; test: Hypoglycemic effect in T2DM KKAy mice, blood glucose; type: in vivo; conditions: for blood glucose: individual mice
# Experimental: (§1) To evaluate the hypoglycemic effect of 46a in type 2 diabetes mellitus (T2DM), female KKAy mice weighing 42–48 g were obtained from the Animal Center of the Institute of Laboratory Animal Sciences, Chinese Academy of Medical Sciences and Peking Union Medical College. […] Blood samples were collected at 1, 2, 4, 6, 8, 24, and 48 h after treatment. […] The glucose levels in urine 4 h and 6 h after administration were also determined using a Biosen C-Line Glucose analyzer (EKF Diagnostics, Germany).
# [6] = tested on: KKAy mice; test: Urinary glucose excretion in T2DM KKAy mice; type: in vivo; conditions: for glucose in urine: 46a 100 mg kg^‒1 or dapagliflozin 5mg/kg, individual mice
# Experimental: as §1
smiles,measurement,setting,value
Cc1ccc(Cc2c(O)cc(O)c(C3OC(CO)C(O)C(O)C3O)c2O)cc1 (stereo not drawn) [Compound 46a],inhibition at 10 µM,"[1]; HEK293, compound at 10 μM, triplicate, read-out: SGLT2 inhibitory rates",> 96%
same,SGLT2 inhibitory rates,"[1]; compound at 10 μM, triplicate, 10 µM",100%
same,increase of SGLT2 inhibitory activity compared to the unsubstituted glycoside 38a,"[1]; from IC50 values, 46a vs 38a",more than 17 times
same,inhibition at 10 µM,[2],50.4%
same,"OD505nm (blood glucose, GOD assay) in OGTT","[3]; 0 min, ICR mice, oral 46a 100 mg kg^‒1 or dapagliflozin 5 mg kg^‒1",0.153 and 0.163 and 0.176 and 0.168 and 0.167 and 0.175 and 0.178
same,"OD505nm (blood glucose, GOD assay) in OGTT","[3]; 15 min after glucose 2 g kg^‒1, oral 46a 100 mg kg^‒1 or dapagliflozin 5 mg kg^‒1",0.178 and 0.123 and 0.205 and 0.183 and 0.193 and 0.203 and 0.189
same,"OD505nm (blood glucose, GOD assay) in OGTT","[3]; 30 min after glucose, same doses",0.183 and 0.213 and 0.193 and 0.202 and 0.218 and 0.205 and 0.211
same,"OD505nm (blood glucose, GOD assay) in OGTT","[3]; 60 min after glucose, same doses",0.19 (2×) and 0.208 and 0.2 and 0.178 and 0.187 and 0.202
same,"OD505nm (blood glucose, GOD assay) in OGTT","[3]; 120 min after glucose, same doses",0.169 and 0.181 and 0.185 and 0.187 and 0.178 (2×) and 0.207
same,blood glucose after glucose loading / glucose tolerance (in words),"[3]; ICR mice, 100 mg kg^‒1 46a oral",significantly lowered the peak value of blood glucose after glucose loading; also recorded: enhanced glucose tolerance
same,OD505nm (nonfasting blood glucose),"[4]; 0h, alloxan-induced DM mice, single dose 46a 100 mg kg^‒1 or dapagliflozin 5 mg kg^‒1",0.431 and 0.458 and 0.49 and 0.52 and 0.521 and 0.444 and 0.562 and 0.464
same,OD505nm (nonfasting blood glucose),"[4]; 1h, same doses",0.26 and 0.308 (2×) and 0.339 and 0.305 and 0.23 and 0.256 and 0.248
same,OD505nm (nonfasting blood glucose),"[4]; 2h, same doses",0.231 and 0.293 and 0.455 and 0.311 and 0.26 and 0.191 and 0.29 and 0.211
same,OD505nm (nonfasting blood glucose),"[4]; 4h, same doses",0.321 and 0.404 and 0.412 and 0.349 and 0.326 and 0.246 and 0.294 and 0.251
same,OD505nm (nonfasting blood glucose),"[4]; 8h, same doses",0.424 and 0.434 and 0.432 and 0.559 and 0.489 and 0.42 and 0.457 and 0.316
same,OD505nm (nonfasting blood glucose),"[4]; 24h, same doses",0.5 and 0.59 and 0.679 and 0.688 and 0.606 and 0.51 and 0.507 and 0.483
same,OD505nm (nonfasting blood glucose),"[4]; 48h, same doses",0.317 and 0.566 and 0.646 and 0.639 and 0.631 and 0.47 and 0.542 and 0.494
same,hypoglycemic activity (in words),"[4]; alloxan-induced DM mice, oral single administration",exhibited obviously hypoglycemic activity
same,blood glucose,"[5]; 0h, KKAy mice, single dose 46a 100 mg kg^‒1 or dapagliflozin 5 mg kg^‒1",391.7 mg/dL and 463.4 mg/dL and 285.8 mg/dL and 498.6 mg/dL and 457.9 mg/dL and 376.2 mg/dL and 436.2 mg/dL
same,blood glucose,"[5]; 1h, same doses",205.3 mg/dL and 315 mg/dL and 262 mg/dL and 341.1 mg/dL and 283 mg/dL and 307.9 mg/dL and 329 mg/dL
same,blood glucose,"[5]; 2h, same doses",212.4 mg/dL and 285.2 mg/dL and 250.2 mg/dL and 371.1 mg/dL and 288 mg/dL and 260.7 mg/dL and 328.6 mg/dL
same,blood glucose,"[5]; 4h, same doses",205.2 mg/dL and 255.5 mg/dL and 229.1 mg/dL and 299.5 mg/dL and 368.8 mg/dL and 243.8 mg/dL and 201.2 mg/dL
same,blood glucose,"[5]; 6h, same doses",206.4 mg/dL and 242.8 mg/dL and 220.9 mg/dL and 332.5 mg/dL and 314.8 mg/dL and 301 mg/dL and 171 mg/dL
same,blood glucose,"[5]; 8h, same doses",215.9 mg/dL and 255.1 mg/dL and 195.2 mg/dL and 297 mg/dL and 255.7 mg/dL and 245.8 mg/dL and 197.4 mg/dL
same,blood glucose,"[5]; 24h, same doses",269.1 mg/dL and 338.2 mg/dL and 240.2 mg/dL and 308.3 mg/dL and 291.4 mg/dL and 330 mg/dL and 166.4 mg/dL
same,blood glucose,"[5]; 48h, same doses",250.5 mg/dL and 412.5 mg/dL and 265.3 mg/dL and 242.5 mg/dL and 425.9 mg/dL and 396 mg/dL and 189.5 mg/dL
same,blood glucose level (in words),"[5]; KKAy mice, single administration, vs control (solvent-treated) group",decreased at 1 h after 46a administration and was maintained at a lower level for 24 h; also recorded: lowered the blood glucose
same,glucose in urine,[6]; 4h,11366 mg/dL and 12692 mg/dL and 12124 mg/dL
same,glucose in urine,[6]; 6h,8584 mg/dL and 12278 mg/dL and 11404 mg/dL and 9012 mg/dL
same,urinary glucose excretion (in words),[6]; single administration,elevated urinary glucose excretion; also recorded: promoted urinary glucose excretion
